Data reported in US12350250B2, “Aggrelytes for treating ocular conditions” (The Regents of the University of Colorado, a Body Corporate, priority 2022, dated 2025).

Experiments:
mouse lenses = assay: AcK in WS fraction of treated mouse lenses (LC-MS/MS); details: 1 mM, 24 hours, vs untreated controls and Aggrelyte-2C (p<0.0001)
Procedure: Mouse and human lenses were treated with aggrelytes as described in Example 10. Water-soluble proteins from mouse and human lenses were obtained as described in Example 13. Effects of aggrelyte treatment on AcK-bearing proteins in the WS fractions were evaluated by LC-MS/MS analysis as described in Example 6.

[1] = system: human lens cortical proteins; assay: Identification of AcK sites in proteins of Aggrelyte-2-treated lens (AcK peptide enrichment, LC-MS/MS); design: key to Fold Change (Aggrelyte-2 vs Control) [Total Sum]: *: were not detected in the control lens but were prominent in the Aggrelyte-2-treated lens
Procedure: (§1) The AcK modification sites and relative levels at those sites in the Aggrelyte-2-treated and untreated (control) human lens cortical proteins were evaluated in the lens (from a donor) that had the largest overall AcK differential measured by Western blot analysis (blot not shown; densitometric summary in FIG. 14B) and LC-MS/MS (FIG. 15B). Each sample (315 μg) was spiked with 200 ng of acetylated bovine serum albumin (AcBSA) protein standard, reduced, alkylated, and digested with trypsin using a urea-based method and then desalted using a C18 resin before being lyophilized. The samples were then immunoprecipitated according to the manufacturer's protocol for the PTMScan Acetyl-Lysine Motif Kit No. 13416 (Cell Signaling Technology). Peptides were purified with a Pierce C18 spin column (Thermo Fisher Scientific) and dried in a Speed Vac concentrator at 45° C. The peptides were resuspended in 3% acetonitrile in 0.1% formic acid for MS analysis.
(§2) The enriched AcK-bearing peptides were loaded onto a 2 cm PepMap 100 nanoviper trapping column and chromatographically resolved with a 0.075×250 mm, […] Acclaim PepMap RSLC reversed-phase nanocolumn (Thermo Scientific) using a 1290 Infinity II LC system equipped with a nanoadapter (Agilent). The mobile phase consisted of water+0.1% formic acid (A) and 90% aqueous acetonitrile+0.1% formic acid (B). Samples were loaded onto the trapping column at 3.0 μL/min for 3.5 min under initial conditions before being chromatographically separated at an effective flow rate of 330 nL/min using a gradient of 3-8% B over 3 min, 8-30% B over 33 min, and 30-40% B over 4 min at 40° C. The gradient was followed by a column wash at 75% B for 5 min. Data were collected using a 6550 Q-TOF equipped with a nanosource (Agilent Technologies) operated using intensity-dependent CID MS/MS to generate peptide identifications. MS/MS data were collected in positive ion polarity over a mass range of 290-1700 m/z at a scan rate of 8 spectra/second for MS scans and a mass range of 50-1700 m/z at a scan rate of 3 spectra/second for MS/MS scans. All charge states, except singly charged species, were allowed during MS/MS acquisition.
(§3) Tandem mass spectra were extracted, searched, and summarized using PEAKS X+ Studio 10.5 software (Bioinformatics Solutions Inc., Waterloo, Ontario). The spectra were searched against the UniProtKB SwissProt [2022_02] Homo sapiens database, allowing for up to three missed semitryptic cleavages with fixed carbamidomethylation of cysteine and a maximum of four variable modifications of deamidation of asparagine and glutamine, oxidation of methionine and/or acetylation of lysine per peptide. The allowed monoisotopic peptide mass tolerance was ±15.0 ppm, and the MS/MS tolerance was ±0.05 da. A false discovery rate (FDR) filter of 0.5% was used corresponding to a −10 log P score ≥19.3.
(§4) The MS-only level data from the LC-MS/MS analyses were extracted and aligned using Profinder V.B.10.01 software (Agilent Technologies). Retention times, neutral masses, and chemical formulas generated from identified acetyl peptides were used to perform batch-targeted feature extraction. Data were extracted with an ion count threshold of two or more ions, 5000 counts, and a score threshold of 70. The score was based on the quality of the mass accuracy, isotope abundances, and isotope spacing of compounds based on the chemical formula of the target peptides within a specified retention time window. Using the peptide isotope model, charge states 2-6 were allowed with H^+ and Na^+ charge carriers. The retention time window and mass window alignment tolerances were set to 0.4 min and 10 ppm, respectively. The extracted peptide peak areas were then used to determine a fold change value in the treated vs. control samples to help identify potential AcK sites that may be affected by aggrelyte-2. Due to a lack of statistical power, a three-fold change filter was used as a sufficient cutoff to identify potential AcK sites of interest. […]

[2] = molecular target: T1, human lens cortical proteins (Homo sapiens, UniProt Q71U36); assay: as above; design: key to Fold Change (Aggrelyte-2 vs Control) [Total Sum]: *: were not detected in the control lens but were prominent in the Aggrelyte-2-treated lens; details: Tubulin alpha-1A chain K370
T1 construct: from tissue; host or cells: cortex of a human lens from a donor, treated ex vivo
Procedure: as §1, §2, §3, §4

[3] = molecular target: T2, human lens cortical proteins (Homo sapiens, UniProt P02489); assay: as above; design: key to Fold Change (Aggrelyte-2 vs Control) [Total Sum]: *: were not detected in the control lens but were prominent in the Aggrelyte-2-treated lens; details: for Aggrelyte-2 treated Area: lens of donor
T2 construct: from tissue; host or cells: cortex of a human lens from a donor, treated ex vivo
T2 sequence (P02489 1-173): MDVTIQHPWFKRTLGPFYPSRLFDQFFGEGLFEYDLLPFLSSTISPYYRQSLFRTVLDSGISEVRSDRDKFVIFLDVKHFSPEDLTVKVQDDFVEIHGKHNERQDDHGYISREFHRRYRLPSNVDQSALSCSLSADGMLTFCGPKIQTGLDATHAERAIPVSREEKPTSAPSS
Procedure: as §1, §2, §3, §4

αA-crystallin (αAC) = molecular target: T3, αA-crystallin (αAC) (Homo sapiens, UniProt P02489); assay: Relative protein acetylation capability on recombinant αAC; format: biochemical; details: 500 μM acetylating agent, αAC 3 mg/mL, 24 hours, 37° C.
T3 sequence (P02489 1-173): T2 sequence (P02489 1-173)
Procedure: The relative ability of Aggrelyte-2 to acetylate lysine residues in proteins was investigated using αA-crystallin (αAC). Human recombinant αAC (3 mg/mL PBS) was incubated in 50 mM sodium phosphate buffer, pH 7.4, for 24 hours at 37° C. while shaking without or with 500 μM acetylating agent (Aggrelyte-2, acetyl-CoA, acetic anhydride, or aspirin), dialyzed against PBS for 24 hours at 4° C.

T1 sequence (Q71U36 whole entry): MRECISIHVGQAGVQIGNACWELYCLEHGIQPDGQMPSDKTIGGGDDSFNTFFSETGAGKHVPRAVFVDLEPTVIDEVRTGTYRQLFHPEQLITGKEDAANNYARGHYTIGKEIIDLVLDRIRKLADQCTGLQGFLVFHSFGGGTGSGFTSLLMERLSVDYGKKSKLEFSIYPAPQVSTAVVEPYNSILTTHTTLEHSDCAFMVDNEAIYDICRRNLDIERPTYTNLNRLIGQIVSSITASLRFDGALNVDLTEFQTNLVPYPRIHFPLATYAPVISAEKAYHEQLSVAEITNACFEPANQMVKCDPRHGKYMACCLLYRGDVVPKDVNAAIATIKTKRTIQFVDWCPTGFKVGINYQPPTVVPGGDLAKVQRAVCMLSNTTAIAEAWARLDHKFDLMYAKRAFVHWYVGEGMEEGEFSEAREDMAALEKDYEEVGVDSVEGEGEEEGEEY

Fold Change (Aggrelyte-2 vs Control) [Total Sum] [2]: *
Aggrelyte-2 treated Area ([2]; lens of donor): 4.24E+04
Fold Change (Aggrelyte-2 vs Control) [Total Sum] ([3]; AlphaA-crystallin K70): 3.13
Aggrelyte-2 treated Area ([3]; AlphaA-crystallin K70): 8.80E+06
Fold Change (Aggrelyte-2 vs Control) [Total Sum] ([3]; AlphaA-crystallin K88): *
Aggrelyte-2 treated Area ([3]; AlphaA-crystallin K88): 1.11E+05
Compound: COC(=O)[C@H](CSC(C)=O)NC(C)=O [Aggrelyte-2, N,S-diacetyl-L-cysteine methyl ester]
AcK modifications in WS proteins (LC-MS/MS) (mouse lenses): significantly higher AcK modifications
Aggrelyte-2 treated Area ([1]; Acetylated Bovine Serum Albumin Standard Spike at 200 ng in each sample (workup control), 17 peptides summed): 3.68E+07
Fold Change (Aggrelyte-2 vs Control) [Total Sum] ([1]; Actin cytoplasmic 1 K61): 3.48
Aggrelyte-2 treated Area ([1]; Actin cytoplasmic 1 K61, lens of donor): 7.63E+04
Fold Change (Aggrelyte-2 vs Control) [Total Sum] ([1]; Actin cytoplasmic 1 K213): 3.53
Aggrelyte-2 treated Area ([1]; Actin cytoplasmic 1 K213, lens of donor): 1.03E+05
Fold Change (Aggrelyte-2 vs Control) [Total Sum] ([1]; AlphaB-crystallin K72): 3.56
Aggrelyte-2 treated Area ([1]; AlphaB-crystallin K72, lens of donor): 6.31E+05
Fold Change (Aggrelyte-2 vs Control) [Total Sum] ([1]; AlphaB-crystallin K174): 7.41
Aggrelyte-2 treated Area ([1]; AlphaB-crystallin K174, lens of donor): 5.84E+06
Fold Change (Aggrelyte-2 vs Control) [Total Sum] ([1]; BetaB2-crystallin K42): 25.80
Aggrelyte-2 treated Area ([1]; BetaB2-crystallin K42, lens of donor): 6.98E+05
Fold Change (Aggrelyte-2 vs Control) [Total Sum] ([1]; Filensin K360): 3.94
Aggrelyte-2 treated Area ([1]; Filensin K360, lens of donor): 1.16E+05
Fold Change (Aggrelyte-2 vs Control) [Total Sum] ([1]; Glyceraldehyde-3-phosphate dehydrogenase K263): 3.18
Aggrelyte-2 treated Area ([1]; Glyceraldehyde-3-phosphate dehydrogenase K263, lens of donor): 1.04E+05
Fold Change (Aggrelyte-2 vs Control) [Total Sum] ([1]; Peroxiredoxin-6 K56): 3.26
Aggrelyte-2 treated Area ([1]; Peroxiredoxin-6 K56, lens of donor): 5.83E+05
Fold Change (Aggrelyte-2 vs Control) [Total Sum] ([1]; Phakinin K400): 14.48
Aggrelyte-2 treated Area ([1]; Phakinin K400, lens of donor): 2.21E+05
Fold Change (Aggrelyte-2 vs Control) [Total Sum] ([1]; Retinal dehydrogenase 1 K495): 9.12
Aggrelyte-2 treated Area ([1]; Retinal dehydrogenase 1 K495, lens of donor): 9.11E+04
rank order of acetylating agents (αA-crystallin (αAC)): followed by Aggrelyte-2, aspirin, and acetyl-CoA
